Molecular target: human TPH1 (Homo sapiens (Human), UniProt P17752)
Experiment: Biochemical in vitro assay using fluorescence readout (TPH1 inhibition)
Conditions: human TPH1, fluorescence readout

human TPH1, sequence (P17752 whole entry): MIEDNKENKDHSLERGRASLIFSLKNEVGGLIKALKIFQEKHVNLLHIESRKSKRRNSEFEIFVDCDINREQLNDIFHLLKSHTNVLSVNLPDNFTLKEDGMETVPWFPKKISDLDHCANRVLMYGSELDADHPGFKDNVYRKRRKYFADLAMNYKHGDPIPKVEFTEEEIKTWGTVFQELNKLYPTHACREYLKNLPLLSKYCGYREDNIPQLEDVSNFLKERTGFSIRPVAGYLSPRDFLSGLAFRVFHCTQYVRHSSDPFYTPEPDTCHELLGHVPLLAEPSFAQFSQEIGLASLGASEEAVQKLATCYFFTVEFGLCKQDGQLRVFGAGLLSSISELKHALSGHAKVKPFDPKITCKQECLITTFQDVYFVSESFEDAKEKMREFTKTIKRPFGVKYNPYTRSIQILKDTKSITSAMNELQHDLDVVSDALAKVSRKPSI

Row | Compound | IC50 [nM]
1 | CNS(=O)(=O)c1ccc(OCC(=O)N2CCc3nc4sc(C)nn4c3C2c2ccc(Cl)cc2F)c(Cl)n1 (centres unmarked) [Example 1.4.60, 6-chloro-5-(2-(5-(4-chloro-2-fluorophenyl)-2-methyl-7,8-dihydro-[1,3,4]thiadiazolo[2′,3′:2,3]imidazo[4,5-c]pyridin-6(5H)-yl)-2-oxoethoxy)-N-methylpyridine-2-sulfonamide] | 36
2 | Cc1nn2c3c(nc2s1)CCN(C(=O)COc1ccc(S(=O)(=O)N(C)C)nc1Cl)C3c1ccc(Cl)cc1F (centres unmarked) [Example 1.4.61, 6-chloro-5-(2-(5-(4-chloro-2-fluorophenyl)-2-methyl-7,8-dihydro-[1,3,4]thiadiazolo[2′,3′:2,3]imidazo[4,5-c]pyridin-6(5H)-yl)-2-oxoethoxy)-N,N-dimethylpyridine-2-sulfonamide] | 37
3 | Cc1nn2c3c(nc2s1)CCN(C(=O)COc1cccc2c1ccn2C)C3c1ccc(Cl)cc1F (centres unmarked) [Example 1.4.62, 1-(5-(4-chloro-2-fluorophenyl)-2-methyl-7,8-dihydro-[1,3,4]thiadiazolo[2′,3′:2,3]imidazo[4,5-c]pyridin-6(5H)-yl)-2-((1-methyl-1H-indol-4-yl)oxy)ethan-1-one] | 15
4 | COc1ccc2c(OCC(=O)N3CCc4nc5sc(C)nn5c4C3c3ccc(Cl)cc3F)cc(C)nc2c1 (centres unmarked) [Example 1.4.63, 1-(5-(4-chloro-2-fluorophenyl)-2-methyl-7,8-dihydro-[1,3,4]thiadiazolo[2′,3′:2,3]imidazo[4,5-c]pyridin-6(5H)-yl)-2-((7-methoxy-2-methylquinolin-4-yl)oxy)ethan-1-one] | 65
5 | Cc1nn2c3c(nc2s1)CCN(C(=O)COc1ccnc2c(C)c(Cl)ccc12)C3c1ccc(Cl)cc1F (centres unmarked) [Example 1.4.64, 1-(5-(4-chloro-2-fluorophenyl)-2-methyl-7,8-dihydro-[1,3,4]thiadiazolo[2′,3′:2,3]imidazo[4,5-c]pyridin-6(5H)-yl)-2-((7-chloro-8-methylquinolin-4-yl)oxy)ethan-1-one] | 255
6 | Cc1nn2c3c(nc2s1)CCN(C(=O)COc1ccnc2c(F)ccc(F)c12)C3c1ccc(Cl)cc1F (centres unmarked) [Example 1.4.65, 1-(5-(4-chloro-2-fluorophenyl)-2-methyl-7,8-dihydro-[1,3,4]thiadiazolo[2′,3′:2,3]imidazo[4,5-c]pyridin-6(5H)-yl)-2-((5,8-difluoroquinolin-4-yl)oxy)ethan-1-one] | 31
7 | Cc1nn2c3c(nc2s1)CCN(C(=O)COc1ccc(N2CCOCC2)cc1Cl)C3c1c(C)noc1C (centres unmarked) [Example 1.5.1, 2-(2-chloro-4-morpholinophenoxy)-1-(5-(3,5-dimethylisoxazol-4-yl)-2-methyl-7,8-dihydro[1,3,4]thiadiazolo[2′,3′:2,3]imidazo[4,5-c]pyridin-6(5H)-yl)ethanone] | 22
8 | Cc1nn2c3c(nc2s1)CCN(C(=O)COc1ccc(N2CCOCC2)nc1Cl)C3c1c(C)noc1C (centres unmarked) [Example 1.5.2, 2-((2-chloro-6-morpholinopyridin-3-yl)oxy)-1-(5-(3,5-dimethylisoxazol-4-yl)-2-methyl-7,8-dihydro-[1,3,4]thiadiazolo[2′,3′:2,3]imidazo[4,5-c]pyridin-6(5H)-yl)ethanone] | 9
9 | Cc1nn2c3c(nc2s1)CCN(C(=O)COc1ccc(F)cc1F)C3c1ccc(C2CC2)cc1F (centres unmarked) [Example 1.6.1, 1-(5-(4-cyclopropyl-2-fluorophenyl)-2-methyl-7,8-dihydro-[1,3,4]thiadiazolo[2′,3′:2,3]imidazo[4,5-c]pyridin-6(5H)-yl)-2-(2,4-difluorophenoxy)ethanone] | 13
10 | Cc1nn2c3c(nc2s1)CCN(C(=O)COc1ccc(F)cc1Cl)C3c1ccc(C2CC2)cc1F (centres unmarked) [Example 1.6.2, 2-(2-chloro-4-fluorophenoxy)-1-(5-(4-cyclopropyl-2-fluorophenyl)-2-methyl-7,8-dihydro-[1,3,4]thiadiazolo [2′,3′:2,3]imidazo[4,5-c]pyridin-6(5H)-yl)ethanone] | 10
11 | Cc1ccc(OCC(=O)N2CCc3nc4sc(C)nn4c3C2c2ccc(C3CC3)cc2F)c(C)n1 (centres unmarked) [Example 1.6.3, 1-(5-(4-cyclopropyl-2-fluorophenyl)-2-methyl-7,8-dihydro-[1,3,4]thiadiazolo[2′,3′:2,3]imidazo[4,5-c]pyridin-6(5H)-yl)-2-((2,6-dimethylpyridin-3-yl)oxy)ethanone] | 13
12 | Cc1nn2c3c(nc2s1)CCN(C(=O)COc1ccc(C(F)(F)F)nc1)C3c1ccc(C2CC2)cc1F (centres unmarked) [Example 1.6.4, 1-(5-(4-cyclopropyl-2-fluorophenyl)-2-methyl-7,8-dihydro-[1,3,4]thiadiazolo[2′,3′:2,3]imidazo[4,5-c]pyridin-6(5H)-yl)-2-((6-(trifluoromethyl)pyridin-3-yl)oxy)ethanone] | 68
13 | Cc1nn2c3c(nc2s1)CCN(C(=O)COc1cccnc1F)C3c1ccc(C2CC2)cc1F (centres unmarked) [Example 1.6.5, 1-(5-(4-cyclopropyl-2-fluorophenyl)-2-methyl-7,8-dihydro-[1,3,4]thiadiazolo[2′,3′:2,3]imidazo[4,5-c]pyridin-6(5H)-yl)-2-((2-fluoropyridin-3-yl)oxy)ethanone] | 89
14 | Cc1nn2c3c(nc2s1)CCN(C(=O)COc1cccnc1C)C3c1ccc(C2CC2)cc1F (centres unmarked) [Example 1.6.6, 1-(5-(4-cyclopropyl-2-fluorophenyl)-2-methyl-7,8-dihydro-[1,3,4]thiadiazolo[2′,3′:2,3]imidazo[4,5-c]pyridin-6(5H)-yl)-2-((2-methylpyridin-3-yl)oxy)ethanone] | 25
15 | CCc1cc(Cl)ccc1OCC(=O)N1CCc2nc3sc(C)nn3c2C1c1ccc(C2CC2)cc1F (centres unmarked) [Example 1.6.7, 2-(4-chloro-2-ethylphenoxy)-1-(5-(4-cyclopropyl-2-fluorophenyl)-2-methyl-7,8-dihydro-[1,3,4]thiadiazolo[2′,3′:2,3]imidazo[4,5-c]pyridin-6(5H)-yl)ethanone] | 7
16 | CCc1nc(C)ccc1OCC(=O)N1CCc2nc3sc(C)nn3c2C1c1ccc(C2CC2)cc1F (centres unmarked) [Example 1.6.8, 1-(5-(4-cyclopropyl-2-fluorophenyl)-2-methyl-7,8-dihydro-[1,3,4]thiadiazolo[2′,3′:2,3]imidazo[4,5-c]pyridin-6(5H)-yl)-2-((2-ethyl-6-methylpyridin-3-yl)oxy)ethanone] | 23
17 | CCc1ncccc1OCC(=O)N1CCc2nc3sc(C)nn3c2C1c1ccc(C2CC2)cc1F (centres unmarked) [Example 1.6.9, 1-(5-(4-cyclopropyl-2-fluorophenyl)-2-methyl-7,8-dihydro-[1,3,4]thiadiazolo[2′,3′:2,3]imidazo[4,5-c]pyridin-6(5H)-yl)-2-((2-ethylpyridin-3-yl)oxy)ethanone] | 457
18 | Cc1nn2c3c(nc2s1)CCN(C(=O)COc1ccc(F)cc1C)C3c1ccc(C2CC2)cc1F (centres unmarked) [Example 1.6.10, 1-(5-(4-cyclopropyl-2-fluorophenyl)-2-methyl-7,8-dihydro-[1,3,4]thiadiazolo[2′,3′:2,3]imidazo[4,5-c]pyridin-6(5H)-yl)-2-(4-fluoro-2-methylphenoxy)ethanone] | 6
19 | Cc1nn2c3c(nc2s1)CCN(C(=O)COc1cccnc1Cl)C3c1ccc(C2CC2)cc1F (centres unmarked) [Example 1.6.11, 2-((2-chloropyridin-3-yl)oxy)-1-(5-(4-cyclopropyl-2-fluorophenyl)-2-methyl-7,8-dihydro-[1,3,4]thiadiazolo[2′,3′:2,3]imidazo[4,5-c]pyridin-6(5H)-yl)ethanone] | 14
20 | Cc1nn2c3c(nc2s1)CCN(C(=O)COc1ccc(S(N)(=O)=O)cc1)C3c1ccc(C2CC2)cc1F (centres unmarked) [Example 1.6.12, 4-(2-(5-(4-cyclopropyl-2-fluorophenyl)-2-methyl-7,8-dihydro-[1,3,4]thiadiazolo[2′,3′:2,3]imidazo[4,5-c]pyridin-6(5H)-yl)-2-oxoethoxy)benzenesulfonamide] | 390
21 | Cc1nn2c3c(nc2s1)CCN(C(=O)COc1cccnc1C(F)(F)F)C3c1ccc(C2CC2)cc1F (centres unmarked) [Example 1.6.13, 1-(5-(4-cyclopropyl-2-fluorophenyl)-2-methyl-7,8-dihydro-[1,3,4]thiadiazolo[2′,3′:2,3]imidazo[4,5-c]pyridin-6(5H)-yl)-2-((2-(trifluoromethyl)pyridin-3-yl)oxy)ethanone] | 4
22 | Cc1nn2c3c(nc2s1)CCN(C(=O)COc1ccc(S(N)(=O)=O)cc1C)C3c1ccc(C2CC2)cc1F (centres unmarked) [Example 1.6.14, 4-(2-(5-(4-cyclopropyl-2-fluorophenyl)-2-methyl-7,8-dihydro-[1,3,4]thiadiazolo[2′,3′:2,3]imidazo[4,5-c]pyridin-6(5H)-yl)-2-oxoethoxy)-3-methylbenzenesulfonamide] | 45
23 | Cc1nn2c3c(nc2s1)CCN(C(=O)COc1ccc(N(C)C)nc1C)C3c1ccc(C2CC2)cc1F (centres unmarked) [Example 1.6.15, 1-(5-(4-cyclopropyl-2-fluorophenyl)-2-methyl-7,8-dihydro-[1,3,4]thiadiazolo[2′,3′:2,3]imidazo[4,5-c]pyridin-6(5H)-yl)-2-((6-(dimethylamino)-2-methylpyridin-3-yl)oxy)ethanone] | 6
24 | Cc1nn2c3c(nc2s1)CCN(C(=O)COc1ccc(N2CCCC2)nc1C)C3c1ccc(C2CC2)cc1F (centres unmarked) [Example 1.6.16, 1-(5-(4-cyclopropyl-2-fluorophenyl)-2-methyl-7,8-dihydro-[1,3,4]thiadiazolo[2′,3′:2,3]imidazo[4,5-c]pyridin-6(5H)-yl)-2-((2-methyl-6-(pyrrolidin-1-yl)pyridin-3-yl)oxy)ethanone] | 13
25 | Cc1nn2c3c(nc2s1)CCN(C(=O)COc1ccc(N2CCOCC2)nc1Cl)C3c1ccc(C2CC2)cc1F (centres unmarked) [Example 1.6.17, 2-((2-chloro-6-morpholinopyridin-3-yl)oxy)-1-(5-(4-cyclopropyl-2-fluorophenyl)-2-methyl-7,8-dihydro-[1,3,4]thiadiazolo [2′,3′:2,3]imidazo[4,5-c]pyridin-6(5H)-yl)ethanone] | 3
26 | CCc1nc(C)ccc1OC1(C(=O)N2CCc3nc4sc(C)nn4c3C2c2ccc(C3CC3)cc2F)CC1 (centres unmarked) [Example 1.6.18, (5-(4-cyclopropyl-2-fluorophenyl)-2-methyl-7,8-dihydro-[1,3,4]thiadiazolo[2′,3′:2,3]imidazo[4,5-c]pyridin-6(5H)-yl)(1-((2-ethyl-6-methylpyridin-3-yl)oxy)cyclopropyl)methanone] | 186
